{"source": "patent US7232837B2", "about": "“Stereoisomers with high affinity for adrenergic receptors” (McNeil-PPC, Inc., priority 1999, dated 2007)", "key": {"α2 adrenergic receptors": {"target": "α2 adrenergic receptors", "assay": "Alpha-2 binding, 125iodoclonidine, canine brain (frontal cortex) membranes", "design": "species or system canine (mongrel dogs)", "conditions": "for Kd: canine cerebral cortex membranes", "method": "BRAIN ALPHA-2 RECEPTORS: Membranes of mongrel dogs were harvested from the canine frontal cortex and prepared as described for lung except that the final membrane protein concentration was adjusted to 0.5 mg/ml.\n(§1) ALPHA-2 BINDING ^125IODOCLONIDINE. […] Nonspecific binding was determined in separate incubations in the presence of 10 μM phentolamine. The final concentration of p-iodoclonidine was 44–45 pM in competition studies and between 50 pM and 10 nM in saturation experiments. Bound and free p-^125iodoclonidine were separated and the bound quantified as described above for the ICYP assays. […] BETA-2 BINDING, ^125IODOCYANOPINDOLOL (^125ICYP). […] Nonspecific binding was determined in separate incubations in the presence of 2 μM d,l-propranolol. Each experimental point was determined in triplicate. […] Incubations were terminated as described above for the α1 assays. Filters were placed into polyethylene tubes and the bound ligand was determined by gamma spectrometry (Sano et al., 1993).\n(§2) All data were analyzed with the aid of microcomputer nonlinear curve fitting programs (PRISM 2.0, Graphpad Software, San Diego Calif.).\n(§3) The receptors resident in each of the three membrane preparations were evaluated by standard saturation analysis following the addition of increasing concentrations of the appropriate radioligand. […] The radio ligand added for subsequent α2-displacement assays was adjusted to evaluate only the high affinity receptor. Contributions from p-iodoclonidine binding to imidazoline receptors in the α2-displacement assay were evaluated with epinephrine.\n(§4) The variable, I, is the concentration of tracer added and the variable, Kd, is the equilibrium dissociation constant empirically determined for this receptor population."}, "β2 adrenergic receptors": {"target": "T1, β2 adrenergic receptors (Canis lupus familiaris, UniProt P54833)", "T1 construct": "Canine lung membranes (10 μg protein/100 ul) were incubated with ^125ICYP; from tissue; host or cells: mongrel dog lung membranes", "T1 sequence (P54833 whole entry)": "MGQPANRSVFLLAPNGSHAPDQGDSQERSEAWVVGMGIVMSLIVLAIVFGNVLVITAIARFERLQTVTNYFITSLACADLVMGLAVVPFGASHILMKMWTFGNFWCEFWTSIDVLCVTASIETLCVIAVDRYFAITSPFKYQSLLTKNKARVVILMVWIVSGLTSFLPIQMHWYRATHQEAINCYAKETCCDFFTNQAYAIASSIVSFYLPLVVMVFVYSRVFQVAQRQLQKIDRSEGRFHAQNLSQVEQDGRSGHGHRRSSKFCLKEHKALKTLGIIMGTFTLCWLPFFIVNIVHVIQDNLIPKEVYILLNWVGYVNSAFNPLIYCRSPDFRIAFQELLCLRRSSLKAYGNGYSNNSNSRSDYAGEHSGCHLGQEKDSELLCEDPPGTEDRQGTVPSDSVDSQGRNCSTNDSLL", "assay": "Beta-2 binding, 125iodocyanopindolol (ICYP), canine lung membranes", "design": "species or system canine (mongrel dogs)", "method": "PULMONARY ALPHA-1 AND BETA-2 RECEPTORS: The lungs of mongrel dogs were separated from cartilaginous airways and major blood vessels, weighed, chopped and placed into 10 volumes of ice-cold buffered sucrose (50 mM Tris-HCl pH 7.4, 1 mM EGTA, 0.32M Sucrose). The tissue was then homogenized in a Polytron tissue homogenizer. The homogenate was filtered through two layers of cheesecloth, and the filtrate was dounced three times using a Con-Turque Potter homogenizer. […] The supernatant was recentrifuged at 30,000×g for 30 min at 4° C. and the resulting pellet was washed and resuspended in 10 volumes of Tris buffer (50 mM Tris HCl, pH 7.4, 1 mM EGTA) and incubated at 37° C. for 30 min in a shaking water bath. The suspension was centrifuged at 4° C. at 30,000×g for 30 min and the resulting pellet washed in 10 volumes of Tris buffer. […] Protein concentration was then determined by the Lowry method and the final suspension was adjusted to 10 mg of protein/ml, aliquoted and stored at […].\nParticulates were also prepared for β2 receptors using the identical procedure except the final protein concentration was adjusted to 0.1 mg/ml.\nas §1, §2, §3, §4"}, "Swiss-Webster mice [1]": {"system": "Swiss-Webster mice", "assay": "H1 receptor antagonist (triprolidine) interaction study, locomotor activity in mice", "conditions": "for effect of triprolidine pretreatment on stimulant or depressant effects: mice pretreated with triprolidine 20 min before the test compound", "method": "H1 receptor antagonist interaction studies. […] The mice were immediately placed in the activity testing chamber for a 2-h session. Doses of the test compound were selected from the ascending or descending time of the dose-effect curve determined from the compound-alone studies. Eight mice were tested for each triprolidine/test compound combination.\n(§5) Statistical analysis. Time course data for each compound were considered in 2-way analyses of variance with dose as a between-group and time as a within-group factor. The dose-effect data were considered in 1-way analyses of variance, and planned individual comparisons were conduced between each dose and the saline control group. Interaction studies were considered in 2-way analyses of variance, with Pretreatment and Test dose as the factors."}, "Swiss-Webster mice [2]": {"system": "Swiss-Webster mice", "assay": "Locomotor stimulant and depressant effects in mice", "conditions": "i.p.; for Depression Efficacy: ratio of the maximal depressant effect to the maximum possible effect (zero locomotor activity) / Stimulation Efficacy: ratio of the maximal stimulant effect of the test compound to the maximal effect of (+)-amphetamine: locomotor activity", "method": "Male Swiss-Webster mice (HSD ND4, Harlan Sprague Dawley, Houston, Tex.) aged 2–3 months were used in these studies. Each dose group consisted of 8 mice. The mice were housed 2 to 4 per cage in 30.4×22.9×15.2 cm clear polycarbonate cages with food and water available ad libitum for at least one week prior to locomotor activity testing. The colony was maintained at 23±1° C., on a normal light-dark cycle beginning at 0700 hr. All testing took place during the light portion of the light-dark cycle.\nHorizontal (forward movement) locomotor activity was measured using a standardized, optical activity monitoring system [Model KXYZCM (16), Omnitech Electronics, Columbus, Ohio]. Activity was monitored in forty 40.5×40.5×30.5 cm clear acrylic chambers that where housed in sets of two within larger sound-attenuating chambers. A panel of 16 infrared beams and corresponding photodetectors were spaced 2 cm apart along the sides and 2.4 cm above the floor of each activity chamber. A 7.5-W incandescent light above each chamber provided dim illumination via a rheostat set to 20% of full scale. Fans provided an 80-dB ambient noise level within the chamber.\nTriprolidine HCl was obtained from Research Biochemicals International, (Natick, Mass.).\nLocomotor stimulant effects. […] (+)-Amphetamine was used as a positive control. The total horizontal distance traversed (cm) was recorded at 10 minute intervals for a 2-hour session. Separate groups of 8 mice were assigned to each dose or saline group, and dose-effect testing continued for each compound until maximal stimulant or depressant effects could be estimated. A separate control group was tested along with each compound.\nUsing TableCurve 2D v2.03 (Jandel Scientific), the mean average total distance traversed (cm/10 min) for that period was fit to a 3-parameter logistic peak function of log10 dose (with the constant set to the mean of the saline group), and the maximum effect estimated from the resulting curve. The […] (dose producing ½ maximal stimulant activity) was estimated from a linear regression against log10 dose of the ascending portion of the dose-effect curve. The stimulant efficacy was the peak effect of the compound (cm/10 min) as estimated from the logistic peak function, minus the mean control distance traveled (cm/10 min), and was expressed for each stimulant compound as a ratio to the stimulant efficacy determined for (+)-amphetamine.\nThe mean average total distance traversed (cm/10 min) for that period were fit to a linear function of log10 dose of the descending portion of the dose-effect curve. […] Efficacy was the ratio of maximal depressant effect to maximum possible depression for each compound (mean average total distance of the control group minus the lowest mean total distance, expressed as a ratio to the control group total distance).\nas §5"}, "[3]": {"conditions": "— denotes absence of significant effect"}}, "note": "Counter-ions that a name gives are not always drawn. Like-named read-outs stand apart in the source and are kept apart here.", "data": [{"smiles": "Clc1cc(I)cc(Cl)c1NC1=NCCN1", "note": "[p-iodoclonidine]", "values": [{"measurement": "Kd", "setting": "α2 adrenergic receptors; Saturation Analysis, read-out: Kd1 (high affinity)", "value": 150, "unit": "pM"}, {"measurement": "Kd", "setting": "α2 adrenergic receptors; Saturation Analysis, read-out: Kd2 (low affinity)", "value": 3010, "unit": "pM"}, {"measurement": "Kd", "setting": "α2 adrenergic receptors; Scatchard Analysis, read-out: Kd1 (high affinity)", "value": 150, "unit": "pM"}, {"measurement": "Kd", "setting": "α2 adrenergic receptors; Scatchard Analysis, read-out: Kd2 (low affinity)", "value": 870, "unit": "pM"}]}, {"smiles": "CNC[C@H](O)c1ccc(O)c(O)c1", "note": "[Epinephrine]", "values": [{"measurement": "displacement of bound p-iodoclonidine", "setting": "α2 adrenergic receptors; α2-displacement assay, check for imidazoline receptors", "value": "easily displaced all bound p-iodoclonidine"}]}, {"smiles": "CC(C)(C)NCC(O)COc1cccc2[nH]c(C#N)c(I)c12", "note": "(stereo not shown) [ICYP, iodocyanopindolol]", "values": [{"measurement": "Kd", "setting": "β2 adrenergic receptors; Saturation Analysis, Run 1", "value": 9.6, "unit": "pM"}, {"measurement": "Kd", "setting": "β2 adrenergic receptors; Saturation Analysis, Run 2", "value": 9.3, "unit": "pM"}, {"measurement": "Kd", "setting": "β2 adrenergic receptors; Saturation Analysis, Summary", "value": 9.5, "unit": "pM"}, {"measurement": "Kd", "setting": "β2 adrenergic receptors; Scatchard Analysis, Run 1", "value": 9.9, "unit": "pM"}, {"measurement": "Kd", "setting": "β2 adrenergic receptors; Scatchard Analysis, Run 2", "value": 7.8, "unit": "pM"}, {"measurement": "Kd", "setting": "β2 adrenergic receptors; Scatchard Analysis, Summary", "value": 8.9, "unit": "pM"}]}, {"smiles": "CNC(C)(C)Cc1ccccc1", "note": "[mephentermine]", "values": [{"measurement": "effect of triprolidine pretreatment on stimulant or depressant effects", "setting": "Swiss-Webster mice [1]", "value": "failed to show significant modification of stimulant or depressant effects"}, {"measurement": "Depression Time: 30-min period following injection in which the maximal depression occurred", "setting": "Swiss-Webster mice [2]", "value": "0 to 30", "unit": "min"}, {"measurement": "Stimulation Time: 30-min period following injection in which the maximal stimulant effect occurred", "setting": "Swiss-Webster mice [2]", "value": "20 to 50", "unit": "min"}, {"measurement": "locomotor stimulant effects, time course (result in words)", "setting": "Swiss-Webster mice [2]", "value": "increased locomotion following from 5 to 25 mg/kg, with effects occurring within 20 minutes and lasting for up to 80 minutes"}, {"measurement": "time of peak stimulant effects following injection", "setting": "Swiss-Webster mice [2]", "value": "20 to 50", "unit": "min"}, {"measurement": "Depression Efficacy: ratio of the maximal depressant effect to the maximum possible effect (zero locomotor activity)", "setting": "Swiss-Webster mice [2]", "value": 0}, {"measurement": "Stimulation Efficacy: ratio of the maximal stimulant effect of the test compound to the maximal effect of (+)-amphetamine", "setting": "Swiss-Webster mice [2]", "value": 1.25}, {"measurement": "Stimulation Potency: dose resulting in ½ the maximal stimulant effect (ID50)", "setting": "Swiss-Webster mice [2]; [3]", "value": 5.6, "unit": "mg/kg"}]}, {"smiles": "C[C@H](N)[C@H](O)c1cccc(O)c1", "note": "(relative stereo) [R-(R*,S*) metaraminol]", "values": [{"measurement": "effect of triprolidine pretreatment on stimulant or depressant effects", "setting": "Swiss-Webster mice [1]", "value": "failed to show significant modification of stimulant or depressant effects"}, {"measurement": "Depression Time: 30-min period following injection in which the maximal depression occurred", "setting": "Swiss-Webster mice [2]", "value": "30 to 60", "unit": "min"}, {"measurement": "Stimulation Time: 30-min period following injection in which the maximal stimulant effect occurred", "setting": "Swiss-Webster mice [2]", "value": "90 to 120", "unit": "min"}, {"measurement": "locomotor depressant effects, time course (result in words)", "setting": "Swiss-Webster mice [2]", "value": "dose-dependent locomotor depression within 10 to 20 minutes following injection"}, {"measurement": "Depression Efficacy: ratio of the maximal depressant effect to the maximum possible effect (zero locomotor activity)", "setting": "Swiss-Webster mice [2]", "value": 0.87}, {"measurement": "Stimulation Efficacy: ratio of the maximal stimulant effect of the test compound to the maximal effect of (+)-amphetamine", "setting": "Swiss-Webster mice [2]", "value": 0}, {"measurement": "Depression Potency: dose resulting in ½ the maximal depressant effect (ID50)", "setting": "Swiss-Webster mice [2]; [3]", "value": 4.3, "unit": "mg/kg"}]}, {"smiles": "Cc1ccc(/C(=C\\CN2CCCC2)c2ccccn2)cc1", "note": "[triprolidine, Triprolidine HCl]", "values": [{"measurement": "effect on horizontal distance, triprolidine alone", "setting": "Swiss-Webster mice [1]; 0.25 to 25 mg/kg, 2-hour test period", "value": "failed to affect horizontal distance"}, {"measurement": "effect on locomotion, triprolidine alone", "setting": "Swiss-Webster mice [1]; 50 and 100 mg/kg", "value": "Dose-dependent depression of locomotion"}]}]}
